Assays:
[1] = tested on: 4T1 mammary carcinoma cells; assay: 4T1 mammary carcinoma flank tumor model, intratumoral CDN; assay type: in vivo, BALB/c mice
Description: Either CT26 colon carcinoma cells (1×10^5 cells in 100 μL PBS) or 4T1 mammary carcinoma cells (1×10^5 cells in 100 μL PBS) were implanted subcutaneously on the flanks of 6-8 week old female BALB/c mice (8 mice per group). Treatments began when tumors reached a volume of approximately 75 mm^3, which was approximately day 14 post tumor implantation. The compounds Rp, Rp dithio cyclic [A(2′,5′)pA(3′,5′)p] (ML RR-CDA) or Rp, Rp dithio cyclic [G(2′,5′)pG(3′,5′)p] (ML RR-CDG) compounds (25 μg in a total volume of 40 μL HBSS), or HBSS vehicle control, and Rp, Rp dithio cyclic [A(2′,5′)pA(3′,5′)p] (ML RR-CDA) (50 μg in a total volume of 40 μL HBSS) or HBSS vehicle control, were administered by subcutaneous injection into the center of the tumor using a 27 gauge needle. Injections were repeated every three days, for a total of three intratumoral injections.
To determine whether CDN derivative molecules induce effective and durable anti-tumor immunity in an alternate tumor model, 6-8 week old female BALB/c mice (8 mice per group) were implanted with 4T1 mammary carcinoma cells (1×10^5 cells in 100 μL PBS). […] On day 35 post tumor implantation, surviving mice and age-matched naïve control mice were implanted on the contralateral flank with either CT26 or 4T1 (both 1×10^5 cells in 100 μL PBS) tumor cells (4 mice per group), and monitored for tumor growth.

[2] = tested on: AH1 peptide; assay: AH1-specific IFN-γ ELISpot of PBMCs from treated CT26-bearing mice; assay type: in vivo, BALB/c mice; settings: day 18 post tumor implantation, 1 μM AH1 peptide, P=0.003, FIG. 21B
Description: (§1) To determine whether the synthetic derivative CDN molecules elicit durable and effective anti-tumor T-cell immunity, 6-8 week old female BALB/c mice (8 mice per group) were implanted with CT26 colon carcinoma cells (1×10^5 cells in 100 μL PBS). Mice were treated with Rp, Rp dithio cyclic [A(2′,5′)pA(3′,5′)p] (ML RR-CDA) compound ([…] in a total volume of 40 μL HBSS) or HBSS vehicle control, and tumor growth was monitored as per previous example. Mice were bled on day 18 post tumor implantation and PBMCs were isolated by Ficoll gradient (Miltenyi Biotech). 5×10^4 PBMCs were stimulated overnight in an IFNγ ELISpot assay with media alone (unstimulated), or with 1 μM of the endogenous H-2 L^d-restricted tumor rejection antigen AH1 peptide in the presence of 1×10^5 naïve splenocytes as feeder cells. IFN-γ ELISpot plates were developed and quantified using a CTL plate reader and ImmunoSpot software. On day 55 post tumor implantation, surviving mice and age-matched naïve control mice were implanted on the contralateral flank with either CT26 or 4T1 (both 1×10^5 cells in 100 μL PBS) tumor cells (4 mice per group), and monitored for tumor growth.

[3] = tested on: CT26; assay: Re-challenge of surviving mice with CT26 tumor cells on the contralateral flank; assay type: in vivo, BALB/c mice
Description: as §1, with “growth. […]” for “growth.”

[4] = tested on: 4T1; assay: Re-challenge of surviving mice with 4T1 tumor cells on the contralateral flank; assay type: in vivo, BALB/c mice
Description: as §1, with “growth. […]” for “growth.”

[5] = tested on: 4T1 mammary carcinoma cells; assay: Abscopal model, 4T1 tumors on contralateral flanks, primary tumor injected; assay type: in vivo, BALB/c mice; settings: 50 μg into the primary tumor only, three injections
Description: The STING-dependent induction of tumor-specific T cell immunity protects animals against subsequent challenge with the autologous tumor. It will be apparent to those skilled in the art that advanced cancer is metastatic, and that to be effective, therapies must inhibit outgrowth of distal masses. Treatment of one or selected lesions that inhibits tumor outgrowth of distal untreated tumor masses is known as an abscopal effect. To test whether IT injection of a selected tumor with synthetic CDN derivative molecules inhibited the tumor outgrowth of a distal untreated tumor, (A) CT26 colon carcinoma cells (1×10^5 cells in 100 μL PBS) and (B) 4T1 mammary carcinoma cells (1×10^5 cells in 100 μL PBS) were implanted subcutaneously on the contralateral flanks of 6-8 week old female BALB/c mice (8 mice per group). Treatments began when tumors reached a volume of approximately 75 mm^3, on day 13 post tumor implantation. The Rp, Rp dithio cyclic [A(2′,5′)pA(3′,5′)p] (ML RR-CDA) compound (50 μg in a total volume of 40 μL HBSS), or HBSS vehicle control, was administered by subcutaneous injection into the center of the primary (right side) tumor only using a 27 gauge needle. Injections were repeated every three days, for a total of three intratumoral injections.

[6] = tested on: B16 melanoma cells; assay: Abscopal model, B16 flank tumor plus intravenous B16 lung colonization; assay type: in vivo, C57BL/6 mice; settings: three injections
Description: To determine whether the synthetic CDN derivative molecules promote abscopal anti-tumor immunity in an alternative tumor model and mouse genetic background, 6-8 week old female C57BL/6 mice (8 mice per group) were implanted with B16 melanoma cells (5×10^4 cells in 100 μL PBS) in the right flank. One week later mice were implanted intravenously with 1×10^5 B16 melanoma cells to colonize the lung, along with a group of naïve age-matched control mice. When the subcutaneous flank tumor reached approximately 75 mm^3 on day 13, mice were treated intratumorally with Rp, Rp dithio cyclic [A(2′,5′)pA(3′,5′)p] (ML RR-CDA) (50 μg in a total volume of 40 μL HBSS) or HBSS vehicle control, for three injections as per previous protocol. On day 28 post subcutaneous tumor implantation (day 21 post i.v. implantation), mice were euthanized and lungs were harvested and fixed (10% Neutral Buffered Formalin), and the number of lung tumor nodules counted using a dissecting microscope.

[7] = re-challenge on day 35 post tumor implantation, FIG. 22B
[8] = re-challenge on day 55 post tumor implantation, FIG. 21C

Nc1ncnc2c1ncn2[C@@H]1O[C@@H]2COP(O)(=S)O[C@@H]3C(O)[C@@H](COP(O)(=S)O[C@H]2[C@H]1O)O[C@H]3n1cnc2c(N)ncnc21 (some centres unmarked) [ML RR-CDA, dithio-[RP, RP]-cyclic-[A(2′,5′)pA(3′,5′)p]]
inhibition of tumor growth of established 4T1 mammary carcinomas ([1]; 50 μg intratumoral, FIG. 22A): completely inhibited tumor growth of established 4T1 mammary carcinomas | inhibition of tumor growth of established 4T1 mammary tumors ([1]; intratumoral, every three days, three injections, 8 mice per group, FIG. 19C): completely inhibited tumor growth of all established 4T1 mammary tumors | IFN-γ production of PBMCs in response to AH1 peptide [2]: significantly higher IFN-γ in response to AH1 peptide stimulation, as compared to the HBSS-treated control group | protection against CT26 re-challenge, survivors of 4T1 tumors [3, 7]: complete protection | protection against CT26 re-challenge, survivors of CT26 tumors [3, 8]: complete protection against the same CT26 tumor type | protection against 4T1 re-challenge, survivors of 4T1 tumors [4, 7]: complete protection | protection against 4T1 re-challenge, survivors of CT26 tumors [4, 8]: not inhibiting growth of the 4T1 tumor type | inhibition of the treated primary tumor, 4T1 ([5]; FIG. 23B): complete inhibition of the treated primary tumor | outgrowth of the contralateral (untreated) tumor, 4T1 ([5]; P=0.0019, FIG. 23B): significantly inhibited | growth of distal lung tumor nodules ([6]; 50 μg into the flank tumor, lungs on day 28, FIG. 24B, 24C): significantly inhibited the growth of distal lung tumor nodules | tumor growth of the primary flank tumor ([6]; 50 μg intratumoral, P<0.001, FIG. 24A): significantly inhibited tumor growth of the primary flank tumor
